Experimental data published in patent publication US6694171B1, “X-ray imaging of tumors with dextran carrier of platinum compounds” (Yeda Research and Development, priority 1997, dated 2004).

Assay: Interaction between CDDP and ADH or hydrazine by OPDA colour reaction (FIGS. 4A-4B)
Type: physicochemical
Details: 6 μg CDDP, OPDA 4 mg/ml
Procedure: The absorbance at 703 nm was determined (FIG. 4A).

NNC(=O)CCCCC(=O)NN [ADH, adipic acid dihydrazide]
leveling-off ratio ligand:CDDP: 20
